For 28 targets, thermal stability z-score results are on record in the supplement of paper PMC12463676, “Small-molecule dissolution of stress granules by redox modulation benefits ALS models” (Nature Chemical Biology, 2025).

Compound in one experiment: NC(=O)CCCCC1CCSS1 [lipoamide]
Nature of the experiment: thermal stability z-score vs DMSO; higher = more thermally stabilized by treatment. As to conditions: HeLa, lipoamide concentration 100 µM. As to the method: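 Cellular thermal proteome profiling in HeLa cells. Cells were treated with 100 µM lipoamide for 1 h, with or without 1 mM arsenate for a further 1 h, then heated to ten temperatures (37-66.3 °C), and soluble protein was quantified by TMT mass spectrometry relative to 0.1% DMSO controls. The thermal stability score (sum of log2 fold changes minus the abundance score) was transformed to a z-score; mean of n = 3 experiments.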

Compound in the next experiment: O=[As]([O-])(O)O.[K+] [potassium arsenate]
The description is as above. As to conditions: HeLa; arsenate concentration 1 mM. As for the experimental part:
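Cellular thermal proteome profiling in HeLa cells treated with 1 mM arsenate for 1 h (DMSO pretreatment), heated to ten temperatures (37-66.3 °C). Soluble protein was quantified by TMT mass spectrometry relative to DMSO controls; the thermal stability score was transformed to a z-score; mean of n = 3 experiments.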

The mark [1] stands for this setting: arsenate co-treatment: 1 mM arsenate 1 h.
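Further: each temperature applied for 3 min, abundance score taken as mean log2 fold change at the two lowest temperatures, z-score obtained by mean subtraction and division by SD.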

Chain of UniProt P11142 (P11142 whole entry, looked up): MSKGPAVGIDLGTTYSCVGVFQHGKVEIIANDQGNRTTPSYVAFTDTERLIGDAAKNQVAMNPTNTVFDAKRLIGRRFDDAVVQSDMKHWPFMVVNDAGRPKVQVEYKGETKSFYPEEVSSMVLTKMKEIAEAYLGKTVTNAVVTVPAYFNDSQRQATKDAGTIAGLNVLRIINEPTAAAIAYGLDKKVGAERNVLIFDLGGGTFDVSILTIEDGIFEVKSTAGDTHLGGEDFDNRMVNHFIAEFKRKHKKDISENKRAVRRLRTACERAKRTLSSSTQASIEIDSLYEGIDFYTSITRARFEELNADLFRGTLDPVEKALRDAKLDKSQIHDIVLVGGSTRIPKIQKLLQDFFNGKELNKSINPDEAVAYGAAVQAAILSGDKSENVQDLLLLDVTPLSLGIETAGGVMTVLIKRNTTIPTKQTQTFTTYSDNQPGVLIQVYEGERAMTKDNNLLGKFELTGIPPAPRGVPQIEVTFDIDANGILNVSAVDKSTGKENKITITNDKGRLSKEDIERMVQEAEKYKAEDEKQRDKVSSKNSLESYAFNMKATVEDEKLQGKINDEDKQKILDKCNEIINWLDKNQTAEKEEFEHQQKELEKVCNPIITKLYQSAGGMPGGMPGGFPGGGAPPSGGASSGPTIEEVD
Chain of UniProt O75030 (O75030 whole entry): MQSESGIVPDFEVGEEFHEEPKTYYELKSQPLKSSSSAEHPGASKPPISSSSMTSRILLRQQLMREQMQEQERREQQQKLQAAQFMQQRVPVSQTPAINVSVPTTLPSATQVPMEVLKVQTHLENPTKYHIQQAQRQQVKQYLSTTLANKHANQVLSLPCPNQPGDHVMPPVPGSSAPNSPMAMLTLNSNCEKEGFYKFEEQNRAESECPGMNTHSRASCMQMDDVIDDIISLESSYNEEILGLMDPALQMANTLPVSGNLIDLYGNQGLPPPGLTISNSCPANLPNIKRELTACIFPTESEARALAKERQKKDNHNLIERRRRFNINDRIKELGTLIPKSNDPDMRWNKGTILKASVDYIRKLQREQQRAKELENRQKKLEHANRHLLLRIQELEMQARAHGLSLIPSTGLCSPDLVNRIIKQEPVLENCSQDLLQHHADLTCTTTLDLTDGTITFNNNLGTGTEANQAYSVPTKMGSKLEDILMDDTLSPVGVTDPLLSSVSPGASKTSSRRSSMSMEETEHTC
Chain of UniProt Q8NDF8 (Q8NDF8 whole entry): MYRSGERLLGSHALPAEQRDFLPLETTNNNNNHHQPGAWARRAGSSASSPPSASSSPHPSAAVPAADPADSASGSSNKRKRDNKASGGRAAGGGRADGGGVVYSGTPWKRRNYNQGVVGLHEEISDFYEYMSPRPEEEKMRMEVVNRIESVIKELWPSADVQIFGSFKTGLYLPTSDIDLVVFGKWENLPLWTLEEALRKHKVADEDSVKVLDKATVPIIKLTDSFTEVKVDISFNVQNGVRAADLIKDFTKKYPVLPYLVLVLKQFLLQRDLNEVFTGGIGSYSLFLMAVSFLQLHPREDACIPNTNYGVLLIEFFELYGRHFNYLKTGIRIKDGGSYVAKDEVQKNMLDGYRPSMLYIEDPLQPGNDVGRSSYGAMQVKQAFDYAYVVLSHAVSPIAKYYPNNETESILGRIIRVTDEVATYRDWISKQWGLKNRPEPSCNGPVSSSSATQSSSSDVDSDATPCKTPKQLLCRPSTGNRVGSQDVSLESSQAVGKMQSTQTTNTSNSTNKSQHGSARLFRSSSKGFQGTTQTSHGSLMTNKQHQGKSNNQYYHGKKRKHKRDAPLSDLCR
Chain of UniProt O95298 (O95298 whole entry): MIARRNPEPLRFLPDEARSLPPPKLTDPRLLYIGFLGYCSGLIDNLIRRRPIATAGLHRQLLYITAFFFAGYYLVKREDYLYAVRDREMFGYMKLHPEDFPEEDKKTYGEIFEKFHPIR
Chain of UniProt Q9H993 (Q9H993 whole entry): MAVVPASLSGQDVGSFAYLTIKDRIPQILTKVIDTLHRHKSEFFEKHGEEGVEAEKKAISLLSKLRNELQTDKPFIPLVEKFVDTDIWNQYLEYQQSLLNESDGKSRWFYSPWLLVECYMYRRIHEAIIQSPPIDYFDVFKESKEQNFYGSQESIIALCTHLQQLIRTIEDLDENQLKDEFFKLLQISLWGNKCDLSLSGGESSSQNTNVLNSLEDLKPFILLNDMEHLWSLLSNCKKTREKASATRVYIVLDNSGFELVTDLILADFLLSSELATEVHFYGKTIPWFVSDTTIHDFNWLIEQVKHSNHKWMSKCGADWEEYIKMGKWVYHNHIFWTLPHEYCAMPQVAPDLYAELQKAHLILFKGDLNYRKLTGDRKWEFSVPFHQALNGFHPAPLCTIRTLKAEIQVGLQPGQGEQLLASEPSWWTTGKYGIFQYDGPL
Chain of UniProt Q9Y224 (Q9Y224 whole entry): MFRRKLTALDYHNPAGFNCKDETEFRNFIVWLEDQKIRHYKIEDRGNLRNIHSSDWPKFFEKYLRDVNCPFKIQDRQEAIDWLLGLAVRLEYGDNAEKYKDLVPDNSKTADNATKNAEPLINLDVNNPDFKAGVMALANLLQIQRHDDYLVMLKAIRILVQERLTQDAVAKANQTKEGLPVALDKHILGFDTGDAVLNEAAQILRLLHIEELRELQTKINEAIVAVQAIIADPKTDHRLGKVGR
Chain of UniProt Q9H2V7 (Q9H2V7 whole entry): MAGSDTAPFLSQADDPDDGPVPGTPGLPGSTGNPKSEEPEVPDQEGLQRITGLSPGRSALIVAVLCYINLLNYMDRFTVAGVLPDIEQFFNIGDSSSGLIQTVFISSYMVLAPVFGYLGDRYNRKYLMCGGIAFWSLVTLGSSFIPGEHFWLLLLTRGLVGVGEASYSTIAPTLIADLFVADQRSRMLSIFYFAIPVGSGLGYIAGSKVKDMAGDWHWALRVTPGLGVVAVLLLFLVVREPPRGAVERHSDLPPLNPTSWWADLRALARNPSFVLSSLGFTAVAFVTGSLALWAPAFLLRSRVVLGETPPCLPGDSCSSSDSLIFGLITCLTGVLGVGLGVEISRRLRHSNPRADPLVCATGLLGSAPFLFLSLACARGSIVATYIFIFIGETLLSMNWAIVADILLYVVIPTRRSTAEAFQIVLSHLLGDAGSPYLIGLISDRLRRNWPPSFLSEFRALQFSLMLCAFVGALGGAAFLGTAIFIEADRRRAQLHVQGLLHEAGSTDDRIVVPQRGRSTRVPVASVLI
Chain of UniProt Q96GA3 (Q96GA3 whole entry): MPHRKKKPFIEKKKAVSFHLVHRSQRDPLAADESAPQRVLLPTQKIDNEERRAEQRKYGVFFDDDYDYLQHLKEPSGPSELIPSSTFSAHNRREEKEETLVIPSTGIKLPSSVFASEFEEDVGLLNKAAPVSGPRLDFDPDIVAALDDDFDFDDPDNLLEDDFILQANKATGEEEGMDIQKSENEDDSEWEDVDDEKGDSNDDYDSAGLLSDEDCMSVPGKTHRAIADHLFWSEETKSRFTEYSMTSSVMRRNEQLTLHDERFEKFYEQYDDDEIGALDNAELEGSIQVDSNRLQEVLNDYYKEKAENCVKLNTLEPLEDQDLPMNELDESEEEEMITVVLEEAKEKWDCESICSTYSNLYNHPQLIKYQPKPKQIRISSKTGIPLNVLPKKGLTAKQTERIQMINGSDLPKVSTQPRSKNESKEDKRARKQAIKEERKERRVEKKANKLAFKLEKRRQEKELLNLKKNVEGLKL
Chain of UniProt Q13530 (Q13530 whole entry): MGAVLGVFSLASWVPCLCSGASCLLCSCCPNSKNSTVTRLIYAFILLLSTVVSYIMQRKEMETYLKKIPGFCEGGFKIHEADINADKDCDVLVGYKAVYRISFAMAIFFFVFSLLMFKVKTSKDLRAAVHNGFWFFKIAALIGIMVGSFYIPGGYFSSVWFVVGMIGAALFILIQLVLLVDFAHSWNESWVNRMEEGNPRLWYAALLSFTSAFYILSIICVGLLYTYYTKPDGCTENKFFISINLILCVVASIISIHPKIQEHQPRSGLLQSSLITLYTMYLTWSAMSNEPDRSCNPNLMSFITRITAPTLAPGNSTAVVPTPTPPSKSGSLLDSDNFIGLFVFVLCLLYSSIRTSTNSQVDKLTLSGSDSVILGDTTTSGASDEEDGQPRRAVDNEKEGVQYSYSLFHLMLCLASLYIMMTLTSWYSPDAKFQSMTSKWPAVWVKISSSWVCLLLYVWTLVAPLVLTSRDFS
Chain of UniProt Q9UNK0 (Q9UNK0 whole entry): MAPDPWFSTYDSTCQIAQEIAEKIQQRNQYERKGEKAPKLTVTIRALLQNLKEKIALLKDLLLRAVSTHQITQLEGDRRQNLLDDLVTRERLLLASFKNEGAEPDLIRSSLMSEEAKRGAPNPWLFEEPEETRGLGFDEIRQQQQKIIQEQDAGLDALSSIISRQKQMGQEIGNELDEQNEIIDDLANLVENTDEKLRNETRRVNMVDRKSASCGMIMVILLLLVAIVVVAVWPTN
Chain of UniProt P61006 (P61006 whole entry): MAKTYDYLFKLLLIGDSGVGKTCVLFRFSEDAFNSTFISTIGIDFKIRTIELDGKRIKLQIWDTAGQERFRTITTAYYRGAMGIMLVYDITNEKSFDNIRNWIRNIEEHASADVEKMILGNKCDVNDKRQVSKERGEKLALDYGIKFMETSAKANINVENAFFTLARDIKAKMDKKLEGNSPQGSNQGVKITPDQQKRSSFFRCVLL
Chain of UniProt Q8N5I9 (Q8N5I9 whole entry): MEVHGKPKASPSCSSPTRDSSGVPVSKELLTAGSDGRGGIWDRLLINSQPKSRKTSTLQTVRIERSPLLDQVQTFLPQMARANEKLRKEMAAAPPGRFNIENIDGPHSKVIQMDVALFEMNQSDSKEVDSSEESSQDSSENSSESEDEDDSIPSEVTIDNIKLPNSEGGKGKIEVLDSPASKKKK

On to CDYL (UniProt Q9Y232), for which the results for the thermal stability z-score with lipoamide (setting [1]), with lipoamide (arsenate co-treatment: none) and with potassium arsenate were 2.68, 1.28 and 0.0814, respectively.
Taken in the same sequence, the figures for C12ORF45 (UniProt Q8N5I9) were 0.42, 0.511 and 0.591.
The corresponding values for RABGAP1L are -0.279, -0.536 and 0.339.
Taken in the same sequence, the figures for LTV1 (UniProt Q96GA3) were 0.231, -0.172 and 1.01.
On to C14ORF166 (UniProt Q9Y224), for which the thermal stability z-score with lipoamide (setting [1]) is 0.126; in the experiment with lipoamide (arsenate co-treatment: none) it was 0.251; with potassium arsenate, -0.994.
The corresponding values for ARMT1 (UniProt Q9H993) are 0.0878, 0.255 and 0.195.
With XPNPEP1 (UniProt Q9NQW7), the values for the thermal stability z-score with lipoamide (setting [1]), in the experiment with lipoamide (arsenate co-treatment: none) and in the experiment with potassium arsenate were 1.5, 0.794 and -0.738, respectively.
Taken in the same sequence, the figures for MITF (UniProt O75030) were -0.413, -0.377 and 0.297.
Taken in the same sequence, the figures for COMT (UniProt P21964) were 0.121, 0.102 and -0.525.
Taken in the same sequence, the figures for FOLR1 (UniProt P15328) were 0.588, 0.376 and 0.366.
With SPNS1 (UniProt Q9H2V7), the results for the thermal stability z-score with lipoamide (setting [1]), with lipoamide (arsenate co-treatment: none) and with potassium arsenate were -0.826, 0.677 and 0.547, respectively.
Taken in the same sequence, the figures for CLUH (UniProt O75153) were 0.336, 1.47 and -0.134.
The corresponding values for REL (UniProt Q04864) are -0.801, 0.147 and 0.22.
Taken in the same sequence, the figures for RAB8A (UniProt P61006) were 0.0143, 0.344 and 0.332.
For ARL8A (UniProt Q96BM9), the thermal stability z-score with lipoamide (setting [1]) amounted to 0.375; in the experiment with lipoamide (arsenate co-treatment: none), 0.0879; with potassium arsenate it was 0.218.
The corresponding values for HSPA8 (UniProt P11142) are -0.0626, 0.357 and -0.107.
Consider ELMSAN1 (UniProt Q6PJG2), for which the thermal stability z-score in the experiment with lipoamide (setting [1]) was 0.273; in the experiment with lipoamide (arsenate co-treatment: none), 0.0593; with potassium arsenate, -0.16.
The corresponding values for NDUFC2 (UniProt O95298) are 1.34, 0.996 and 2.15.
The corresponding values for DCPS (UniProt Q96C86) are -0.92, -0.621 and -0.92.
The corresponding values for BCL7C (UniProt Q8WUZ0) are 0.0654, 0.0122 and 0.0252.
In the case of CLTC (UniProt Q00610), the values for the thermal stability z-score with lipoamide (setting [1]), in the experiment with lipoamide (arsenate co-treatment: none) and with potassium arsenate were 0.447, 0.409 and -0.263, respectively.
On to ATXN10 (UniProt Q9UBB4), for which the thermal stability z-score is 0.258 with lipoamide (setting [1]), 0.374 with lipoamide (arsenate co-treatment: none) and -1.03 with potassium arsenate.
The corresponding values for SERINC3 (UniProt Q13530) are -0.42, -0.641 and -0.788.
ISG20L2 (UniProt Q9H9L3): the thermal stability z-score is -0.0445 with lipoamide (setting [1]), -0.0231 with lipoamide (arsenate co-treatment: none) and -0.367 with potassium arsenate.
Taken in the same sequence, the figures for STX8 (UniProt Q9UNK0) were -0.198, 0.507 and 0.248.
Taken in the same sequence, the figures for ADCK3 (UniProt Q8NI60) were -0.0263, 0.19 and 0.0575.
Taken in the same sequence, the figures for PAPD5 (UniProt Q8NDF8) were 0.175, -0.0726 and -0.0587.
As to IFIT3 (UniProt O14879), the thermal stability z-score in the experiment with lipoamide (setting [1]) is 0.00563; with lipoamide (arsenate co-treatment: none), -0.0242; in the experiment with potassium arsenate it was -0.0781.
